From patent publication US20230159510A1, “NOVEL PRMT5 INHIBITORS” (AMGEN INC., priority 2020, published 2023) come the findings set out here.

Assay [1] concerns HCT116 MTAP null cells. As to the kind of experiment: HCT116 proliferation assay, MTAP null cells (CellTiter-Glo, 6 days). Type of assay: cell-based. The conditions noted are these: 144 h, read-out: Protif_ HCT116-MTAP null IC50. A digest of the protocol: (§1)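 Both lines grow in RPMI 1640 containing 10% fetal bovine serum. After an overnight rest, they receive compound at up to 1 or 10 µM in threefold serial dilutions, with vehicle wells holding DMSO only.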
(In general: ATP-based viability assays read luminescence as a measure of living cells.)

Assay [2] deals with HCT116 WT cells. The assay is described as follows: HCT116 proliferation assay, WT cells (CellTiter-Glo, 6 days). Type of assay: cell-based. Particulars: Homo sapiens, HCT-116, 144 h, read-out: Prolif_HCT116-WT IC50. A digest of the protocol:
as §1

The target of assay [3] is PRMT5/MEP50 (Homo sapiens, UniProt O14744). As to the kind of experiment: MTase-Glo methyl transferase assay, Method A (Histone H4 peptide, 1 µM MTA, 24 h pre-incubation). The format is biochemical. Also noted: made in house. Particulars: read-out: PRMT5 MTase Glo Ki (nM, Meth. A). The procedure:
Method A: The PRMT5 inhibitory activity of test compounds was determined using the MTase-Glo™ assay (Promega), which monitors the product (S-adenosyl homocysteine or SAH) of methyltransferase reactions. The PRMT5 MTase-Glo assay was conducted in a 384-well white ProxiPlate (PerkinElmer) in a total volume of 12 µL. The PRMT5 enzymatic reaction (in 4 µL) contained 10 nM PRMT5/MEP50 (produced at Amgen), 5 µM S-adenosyl methionine (SAM, Promega), 1 µM Histone H4 (1-21)-Lys(Biotin) (Anaspec), 1 µM 5′-methylthioadenosine (MTA, Sigma) and two-fold serially diluted compounds in a reaction buffer of 50 mM Tris (pH 8.0), 50 mM NaCl, 0.01% Tween 20, 0.01% BSA, and 1 mM DTT. Test compounds were pre-incubated with PRMT5/MEP50, SAM, and MTA for 24 hours before addition of Histone H4 peptide to initiate the PRMT5 reaction. The reaction was allowed to proceed for 2 hours at room temperature and was then terminated by addition of 2 µL of 3X MTase-Glo™ Reagent (Promega) and 150 µM EPZ015666 (Sigma). After a 30-minute incubation at room temperature, 6 µL of MTase-Glo™ Detection Solution (Promega) was added and the plate was incubated at room temperature for an additional 30 minutes. The light signal corresponding to the amount of SAH produced by the PRMT5 reaction was subsequently measured using an Envision multimode reader (PerkinElmer). IC50 and KI values were obtained by analyzing dose-response curves using Genedata Screener (Genedata).

Read-outs that look alike come from different tables or passages of the source. A value given as a limit tells only on which side of the number the result lay.

PRMT5/MEP50, sequence (O14744 whole entry): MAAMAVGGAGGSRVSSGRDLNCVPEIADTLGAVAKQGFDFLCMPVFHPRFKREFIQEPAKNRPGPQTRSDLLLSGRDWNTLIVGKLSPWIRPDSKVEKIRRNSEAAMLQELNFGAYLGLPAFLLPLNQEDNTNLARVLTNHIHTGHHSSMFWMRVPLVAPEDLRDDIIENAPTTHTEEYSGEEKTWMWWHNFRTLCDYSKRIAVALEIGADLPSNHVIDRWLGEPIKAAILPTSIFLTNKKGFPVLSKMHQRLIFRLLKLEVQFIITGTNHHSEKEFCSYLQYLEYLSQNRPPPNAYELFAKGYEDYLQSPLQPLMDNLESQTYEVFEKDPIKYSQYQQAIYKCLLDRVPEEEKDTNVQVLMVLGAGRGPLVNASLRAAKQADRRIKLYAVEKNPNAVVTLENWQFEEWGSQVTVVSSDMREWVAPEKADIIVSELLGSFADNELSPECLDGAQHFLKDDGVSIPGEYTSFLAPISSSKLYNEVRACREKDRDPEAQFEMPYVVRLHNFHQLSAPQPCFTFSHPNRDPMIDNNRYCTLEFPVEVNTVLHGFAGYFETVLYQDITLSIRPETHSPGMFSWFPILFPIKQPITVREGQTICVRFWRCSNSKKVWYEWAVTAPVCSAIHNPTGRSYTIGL
PRMT5/MEP50, sequence (Q9BQA1 whole entry partner): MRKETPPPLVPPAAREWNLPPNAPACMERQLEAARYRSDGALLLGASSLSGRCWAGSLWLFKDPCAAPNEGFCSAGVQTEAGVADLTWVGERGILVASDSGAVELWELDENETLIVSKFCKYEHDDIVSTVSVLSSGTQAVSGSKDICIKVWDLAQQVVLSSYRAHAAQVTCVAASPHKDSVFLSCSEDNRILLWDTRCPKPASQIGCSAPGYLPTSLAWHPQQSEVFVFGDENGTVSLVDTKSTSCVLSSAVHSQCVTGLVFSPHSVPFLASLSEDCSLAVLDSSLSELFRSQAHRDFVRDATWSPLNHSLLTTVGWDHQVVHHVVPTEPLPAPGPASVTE

What is called IC50 is the concentration at which inhibition is half-maximal. As usually defined, the Ki is the dissociation constant of the complex between target and ligand, obtained from inhibition or displacement. In the case of `C[C@H](c1ncccn1)N(Cc1ccc(C(F)(F)F)nn1)C(=O)c1cnc2nc(N)c(Br)cc2c1` (single isomer, unassigned) [Example 444], the IC50 in assay [1] (HCT116-MTAP null) was 327 nM; in assay [2], more than 10000 nM. In addition, the Ki in assay [3] is 0.15 nM.

In the case of `C[C@H](c1ncccn1)N(Cc1ccc(C(F)(F)F)nn1)C(=O)c1ccc2nc(N)c(Cl)cc2c1` (single isomer, unassigned) [Example 445], the figures for the half-maximal inhibitory concentration (IC50) in assay [1] (HCT116-MTAP null) and in assay [2] were 549 nM and more than 10000 nM, respectively. Besides, the inhibitory constant (Ki) in assay [3] was found to be 0.53 nM.

As to `Cc1cc2cc(C(=O)N(Cc3ccc4ccccc4n3)[C@H](C)c3ncccn3)ccc2nc1N` (single isomer, unassigned) [Example 446], the values for the IC50 in assay [1] (HCT116-MTAP null) and in assay [2] were 45 nM and 851 nM, respectively. Also, the inhibition constant (Ki) in assay [3] stood at 0.04 nM.

On to `Cc1cc2cc(C(=O)N(Cc3cnc4ccccc4c3)[C@H](C)c3ncccn3)ccc2nc1N` (single isomer, unassigned) [Example 447], for which the IC50 was 673 nM in assay [1] (HCT116-MTAP null) and more than 10000 nM in assay [2]. The Ki in assay [3] stood at 5.51 nM.

Turning to `Cc1cc2cc(C(=O)N(Cc3ccc(Br)cn3)[C@@H]3CCCN(C)C3=O)ccc2nc1N` (single isomer, unassigned) [Example 448], the IC50 worked out at 238 nM in assay [1] (HCT116-MTAP null) and 5230 nM in assay [2]. Moreover, the Ki in assay [3] came to 0.32 nM.

Take `Cc1cc2cc(C(=O)N(Cc3cnc(C(F)(F)F)cn3)[C@H](C)c3ncccn3)ccc2nc1N` (single isomer, unassigned) [Example 449]: the IC50 in assay [1] (HCT116-MTAP null) was found to be 168 nM; in assay [2], 5900 nM. Also, the Ki in assay [3] amounted to 0.27 nM.

Regarding `Cc1cc2cc(C(=O)N(Cc3ccc(Br)nn3)[C@H](C)c3ncccn3)ccc2nc1N` (single isomer, unassigned) [Example 450], the IC50 in assay [1] (HCT116-MTAP null) is 45 nM; in assay [2], 2020 nM. In addition, the Ki in assay [3] was found to be 0.13 nM.

For `Cc1cc2cc(C(=O)N(Cc3ccc(C(F)(F)F)cn3)[C@@H]3CCOc4ccc(F)nc43)ccc2nc1N` (single isomer, unassigned) [Example 451], the half-inhibitory concentration (IC50) came to 13 nM in assay [1] (HCT116-MTAP null) and 232 nM in assay [2]. For the same molecule, the Ki in assay [3] came out at 0.02 nM.

As for `Cc1cc2cc(C(=O)N(Cc3ccc(C(F)(F)F)cn3)[C@@H](c3ncccn3)C3CC3)ccc2nc1N` (single isomer, unassigned) [Example 452], the half-inhibitory concentration (IC50) in assay [1] (HCT116-MTAP null) is 22 nM; in assay [2], 480 nM. Moreover, in assay [3], the Ki is 0.06 nM.

Take `CO[C@H](CN(Cc1ccc(C(F)(F)F)cn1)C(=O)c1ccc2nc(N)c(C)cc2c1)C(F)(F)F` (single isomer, unassigned) [Example 453]: the values for the half-inhibitory concentration (IC50) in assay [1] (HCT116-MTAP null) and in assay [2] were 65 nM and 1720 nM, respectively. In addition, the inhibition constant (Ki) in assay [3] came to 0.06 nM.

As for `CO[C@@H](CN(Cc1ccc(C(F)(F)F)cn1)C(=O)c1cnc2nc(N)c(Br)cc2c1)C(F)(F)F` (single isomer, unassigned) [Example 454], the figures for the IC50 in assay [1] (HCT116-MTAP null) and in assay [2] were 252 nM and 3940 nM, respectively. Also, the Ki in assay [3] is 0.15 nM.

As to `Cc1cc2cc(C(=O)N(Cc3ccc(C(F)F)cn3)[C@H](C)c3ncc(F)cn3)ccc2nc1N` (single isomer, unassigned) [Example 455], the figures for the IC50 in assay [1] (HCT116-MTAP null) and in assay [2] were 100 nM and 2940 nM, respectively. The inhibitory constant (Ki) in assay [3] was 0.16 nM.

As for `Cc1cc2cc(C(=O)N(Cc3ccc(C(F)(F)F)cn3)[C@@H]3CCOc4cccnc43)ccc2nc1N` (single isomer, unassigned) [Example 456], the 50% inhibitory concentration (IC50) worked out at 39 nM in assay [1] (HCT116-MTAP null) and 816 nM in assay [2]. Further, the inhibition constant Ki in assay [3] was determined as 0.3 nM.

As for `Cc1cc2cc(C(=O)N(Cc3ccc(C(F)(F)F)cn3)C[C@@H](C)C(F)(F)F)ccc2nc1N` (single isomer, unassigned) [Example 457], the values for the concentration for half-maximal inhibition (IC50) in assay [1] and in assay [2] were 717 nM and more than 10000 nM, respectively. Moreover, the Ki in assay [3] was found to be 0.78 nM.

Regarding `Cc1cc2cc(C(=O)N(Cc3ccc(C(F)(F)F)cn3)[C@@H]3CCOc4ncccc43)ccc2nc1N` (single isomer, unassigned) [Example 459], the figures for the IC50 in assay [1] (HCT116-MTAP null) and in assay [2] were 78 nM and 2340 nM, respectively. Besides, the inhibitory constant (Ki) in assay [3] amounted to 0.25 nM.

`Cc1cc2cc(C(=O)N(Cc3ccc(C(F)(F)F)cn3)[C@@H]3CCCN(C)C3=O)ccc2nc1N` (single isomer, unassigned) [Example 460]: the IC50 in assay [1] (HCT116-MTAP null) was 155 nM; in assay [2], 7850 nM. In addition, the Ki in assay [3] amounted to 1.82 nM.

For the molecule `Cc1cc2cc(C(=O)N(Cc3ccc(C(F)(F)F)cn3)[C@@H]3CCCNC3=O)ccc2nc1N` (single isomer, unassigned) [Example 461], the IC50 came out at 322 nM in assay [1] (HCT116-MTAP null) and 7780 nM in assay [2]. In addition, the inhibition constant (Ki) in assay [3] is 1.23 nM.

For `Cc1cc2cc(C(=O)N(Cc3ccc(C(F)(F)F)cn3)[C@@H]3CCCN(C4CC4)C3=O)ccc2nc1N` (single isomer, unassigned) [Example 462], the IC50 in assay [1] (HCT116-MTAP null) is 349 nM; in assay [2], more than 10000 nM. For the same molecule, in assay [3], the Ki stood at 0.29 nM.

For `Cc1cc2cc(C(=O)N(Cc3ncccc3F)[C@@H]3CCc4nc(C(F)(F)F)ccc43)ccc2nc1N` (single isomer, unassigned) [Example 463], the IC50 in assay [1] (HCT116-MTAP null) was found to be 683 nM. Besides, the inhibitory constant (Ki) in assay [3] was 1.23 nM.

On to `Cc1cc2cc(C(=O)N(Cc3ccc(C(F)(F)F)cn3)[C@@H]3CCCn4ncnc43)ccc2nc1N` (single isomer, unassigned) [Example 464], for which the IC50 in assay [1] (HCT116-MTAP null) stood at 71 nM; in assay [2], 1510 nM. Moreover, the Ki in assay [3] came out at 0.1 nM.

As to `Cc1cc2cc(C(=O)N(Cc3ccc(Br)c(C)n3)[C@H](C)c3ncccn3)ccc2nc1N` (single isomer, unassigned) [Example 465], in assay [1] (HCT116-MTAP null), the IC50 was found to be 24 nM. The Ki in assay [3] is less than 0.1 nM.

With `Cc1cc2cc(C(=O)N(Cc3ccc(C(F)(F)F)cn3)[C@@H]3CCCC(F)(F)[C@@H]3O)ccc2nc1N` (single isomer, unassigned) [Example 466], the figures for the IC50 in assay [1] (HCT116-MTAP null) and in assay [2] were 269 nM and 4270 nM, respectively. Further, the Ki in assay [3] is 0.13 nM.

As for `Nc1nc2ncc(C(=O)N(Cc3ccc(C(F)(F)F)cn3)[C@@H]3CCCc4nccnc43)cc2cc1Br` (single isomer, unassigned) [Example 467], the figures for the IC50 in assay [1] (HCT116-MTAP null) and in assay [2] were 28 nM and 248 nM, respectively. Further, in assay [3], the Ki amounted to 0.21 nM.

In the case of `COc1cnc(CN(C(=O)c2ccc3nc(N)c(C)cc3c2)[C@H](C)c2ncccn2)cn1` (single isomer, unassigned) [Example 476], the IC50 in assay [1] (HCT116-MTAP null) was 660 nM. Also, the Ki in assay [3] worked out at 0.83 nM.

With `COc1ccc(CN(C(=O)c2cnc3nc(N)c(Br)cc3c2)[C@H](C)c2ncccn2)nn1` (single isomer, unassigned) [Example 478], in assay [1] (HCT116-MTAP null), the IC50 was found to be 594 nM. In addition, the Ki in assay [3] turned out to be 0.31 nM.

Take `CC[C@H](c1ncccn1)N(Cc1ccc(C(F)(F)F)cn1)C(=O)c1ccc2nc(N)c(C)cc2c1` (single isomer, unassigned) [Example 489]: the IC50 in assay [1] (HCT116-MTAP null) is 27 nM. The Ki in assay [3] was found to be 0.06 nM.

With `COc1ccc(CN(C(=O)c2ccc3nc(N)c(C)cc3c2)[C@H](C)c2ncccn2)nn1` (single isomer, unassigned) [Example 517, 2-amino-N-((6-methoxy-3-pyridazinyl)methyl)-3-methyl-N-((IR)-1-(2-pyrimidinyl)ethyl)-6-quinolinecarboxamide], the IC50 in assay [1] (HCT116-MTAP null) was 73 nM. The inhibition constant Ki in assay [3] was determined as 0.07 nM.
